From ChEMBL document CHEMBL3046050, “Synthesis of bioactive spiro-2-[3-(2-phenyl)-3H-indolyl]-1-aryl-3-phenylaziridines and SAR studies on their antimicrobial behavior” (Med Chem Res, 2009)

Tests used:
[1] = Acute toxicity in Rattus norvegicus (rat); format: organism-based; settings: in vivo
[2] = system: Brevundimonas diminuta; assay: Antimicrobial activity against Brevundimonas diminuta at 20 ug/ml after 24 hr by disk diffusion method relative to ampicillin; format: functional
[3] = system: Escherichia coli; assay: Antimicrobial activity against Escherichia coli at 20 ug/ml after 24 hr by disk diffusion method; format: functional; settings: read-out: IZ
[4] = system: Bacillus subtilis; assay: Antimicrobial activity against Bacillus subtilis at 20 ug/ml after 24 hr by disk diffusion method; format: functional; settings: read-out: IZ
[5] = system: Priestia megaterium; assay: Antimicrobial activity against Bacillus megaterium at 20 ug/ml after 24 hr by disk diffusion method; format: functional; settings: read-out: IZ
[6] = system: Bacillus subtilis; assay: Antimicrobial activity against Bacillus subtilis at 20 ug/ml after 24 hr by disk diffusion method relative to ampicillin; format: functional
[7] = system: Escherichia coli; assay: Antimicrobial activity against Escherichia coli at 20 ug/ml after 24 hr by disk diffusion method relative to ampicillin; format: functional
[8] = system: Brevundimonas diminuta; assay: Antimicrobial activity against Brevundimonas diminuta at 20 ug/ml after 24 hr by disk diffusion method; format: functional; settings: read-out: IZ
[9] = system: Priestia megaterium; assay: Antimicrobial activity against Bacillus megaterium at 20 ug/ml after 24 hr by disk diffusion method relative to ampicillin; format: functional

SMILES	LD50 [1] [mg/kg]	Ratio [2]	zone of inhibition at 20 µg/mL [3] [mm]	zone of inhibition at 20 µg/mL [4] [mm]	zone of inhibition at 20 µg/mL [5] [mm]	Ratio [6]	Ratio [7]	zone of inhibition at 20 µg/mL [8] [mm]	Ratio [9]
Clc1ccccc1N1C(c2ccccc2)C12C(c1ccccc1)=Nc1ccccc12 (stereo not drawn)	4040	222.2	17	16.3	15.5	175.6	161.9	20	131.4
Clc1cccc(N2C(c3ccccc3)C23C(c2ccccc2)=Nc2ccccc23)c1 (stereo not drawn)	4380	207.4	15.8	15.5	14.3	166.7	150.8	18.7	121.5
Cc1cccc(N2C(c3ccccc3)C23C(c2ccccc2)=Nc2ccccc23)c1 (stereo not drawn)	3840	192.6	13.5	14.5	13.5	155.9	128.6	17.3	114.4
O=[N+]([O-])c1ccccc1N1C(c2ccccc2)C12C(c1ccccc1)=Nc1ccccc12 (stereo not drawn)	3560	244.4	18.3	19.3	17.8	207.9	174.6	22	151.1
O=[N+]([O-])c1cccc(N2C(c3ccccc3)C23C(c2ccccc2)=Nc2ccccc23)c1 (stereo not drawn)	4500	229.6	17.7	17.2	16.8	184.6	168.3	20.7	142.7
O=[N+]([O-])c1ccc(N2C(c3ccccc3)C23C(c2ccccc2)=Nc2ccccc23)cc1 (stereo not drawn)	5380	127.8	8.8	8.3	8.7	89.6	84.1	11.5	73.4
Clc1ccc(N2C(c3ccccc3)C23C(c2ccccc2)=Nc2ccccc23)cc1 (stereo not drawn)	4240	118.5	7.7	7.3	6.8	78.6	73	10.7	57.9
Oc1ccc(N2C(c3ccccc3)C23C(c2ccccc2)=Nc2ccccc23)cc1 (stereo not drawn)	4480	85.2	6	5.5	5.5	59.1	57.1	7.7	46.6
O=C(O)c1ccccc1N1C(c2ccccc2)C12C(c1ccccc1)=Nc1ccccc12 (stereo not drawn)	3840	64.8	4.2	3.3	4.3	35.8	39.7	5.8	36.7
CCOc1ccccc1N1C(c2ccccc2)C12C(c1ccccc1)=Nc1ccccc12 (stereo not drawn)	4820	303.7	25	25.7	22.2	276	238.1	27.3	187.9
CCOc1cccc(N2C(c3ccccc3)C23C(c2ccccc2)=Nc2ccccc23)c1 (stereo not drawn)	4640	288.9	24.3	24.5	20.8	263.4	231.7	26	176.6
Oc1cccc(N2C(c3ccccc3)C23C(c2ccccc2)=Nc2ccccc23)c1 (stereo not drawn)	5080	174.1	10.5	11.5	10.5	123.7	100	15.7	89
Oc1ccccc1N1C(c2ccccc2)C12C(c1ccccc1)=Nc1ccccc12 (stereo not drawn)	4360	188.9	11.3	12.7	12.7	136.2	107.9	17	107.3
COc1cccc(N2C(c3ccccc3)C23C(c2ccccc2)=Nc2ccccc23)c1 (stereo not drawn)	5120	253.7	20.8	21.5	17.7	231.2	198.4	22.8	149.7
COc1ccccc1N1C(c2ccccc2)C12C(c1ccccc1)=Nc1ccccc12 (stereo not drawn)	5150	266.7	21.2	23	18.7	247.3	201.6	24	158.2
c1ccc(C2=Nc3ccccc3C23C(c2ccccc2)N3c2ccccc2)cc1 (stereo not drawn)	4240	148.1	9.5	10.2	9.8	109.3	90.5	13.3	83.3
CC1(C)S[C@@H]2[C@H](NC(=O)[C@H](N)c3ccccc3)C(=O)N2[C@H]1C(=O)O [AMPICILLIN]	–	–	10.5	9.3	11.8	–	–	9	–
